From publication PMC10944477 (Communications Biology, 2024)
Converted amounts (≈) assume the structure as drawn.

Experiments:
[1] = tested on: C[C@H]1c2cccc(O)c2C(=O)C2=C(O)[C@]3(O)C(=O)C(C(N)=O)=C(O)[C@@H](N(C)C)[C@@H]3[C@@H](O)[C@@H]21; assay: purified protein; details: pH 8.5
E. coli + pZE24 TetX7_WT = assay: microbe, parasite or virus in culture; details: Escherichia coli, 20 h
Experimental: (§1) For high expression from the Plac/ara-1 promoter, 1 mM IPTG fully relieves repression by LacI[93]. Inoculated panels were incubated at 37 °C for 20 h with shaking, then scored by eye and using a plate reader.

E. coli + pZE24 Tet50_WT = assay: microbe, parasite or virus in culture; details: Escherichia coli, 20 h
Experimental: as §1

Tet(X7) = assay type: biochemical, uncultured bacterium; details: […] NADPH, […] MgCl2, 100 mM TAPS pH 8.5, 0.4 µM enzyme; read-out: KM (apparent)
Tet(56-4) = details: read-out: KM (apparent); […] NADPH, […] MgCl2, 100 mM TAPS pH 8.5, 0.4 µM enzyme
Tet(56-7) = details: read-out: KM (apparent)
Tet(56-6) = details: read-out: KM (apparent); […] NADPH, […] MgCl2, 100 mM TAPS pH 8.5, 0.4 µM enzyme
Tet(X13.2) = details: read-out: KM (apparent); […] NADPH, […] MgCl2, 100 mM TAPS pH 8.5, 0.4 µM enzyme
Tet(58) = details: read-out: KM (apparent); […] NADPH, […] MgCl2, 100 mM TAPS pH 8.5, 0.4 µM enzyme
Tet(56-5) = details: read-out: KM (apparent)
Tet(56-3) = molecular target: T1, Tet(56-3) (Legionella massiliensis, UniProt A0A078L5T0); assay: biochemical
T1 construct: gene BN59_03621
T1 sequence (A0A078L5T0 1-387 limits assumed): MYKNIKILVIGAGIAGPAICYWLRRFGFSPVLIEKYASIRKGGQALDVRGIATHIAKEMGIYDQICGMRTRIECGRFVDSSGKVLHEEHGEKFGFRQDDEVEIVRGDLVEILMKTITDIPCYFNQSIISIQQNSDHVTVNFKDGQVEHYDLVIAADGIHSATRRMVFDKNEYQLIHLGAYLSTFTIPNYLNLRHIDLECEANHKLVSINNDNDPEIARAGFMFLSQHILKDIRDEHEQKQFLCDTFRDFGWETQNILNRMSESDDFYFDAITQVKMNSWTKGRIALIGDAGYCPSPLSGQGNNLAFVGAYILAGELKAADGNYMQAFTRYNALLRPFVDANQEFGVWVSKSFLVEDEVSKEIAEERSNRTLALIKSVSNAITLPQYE

Tet(56-2) = molecular target: T2, Tet(56-2) (Legionella clemsonensis, UniProt A0A222NYA8); assay: biochemical
T2 construct: gene clem_00015
T2 sequence (A0A222NYA8 1-387 limits assumed): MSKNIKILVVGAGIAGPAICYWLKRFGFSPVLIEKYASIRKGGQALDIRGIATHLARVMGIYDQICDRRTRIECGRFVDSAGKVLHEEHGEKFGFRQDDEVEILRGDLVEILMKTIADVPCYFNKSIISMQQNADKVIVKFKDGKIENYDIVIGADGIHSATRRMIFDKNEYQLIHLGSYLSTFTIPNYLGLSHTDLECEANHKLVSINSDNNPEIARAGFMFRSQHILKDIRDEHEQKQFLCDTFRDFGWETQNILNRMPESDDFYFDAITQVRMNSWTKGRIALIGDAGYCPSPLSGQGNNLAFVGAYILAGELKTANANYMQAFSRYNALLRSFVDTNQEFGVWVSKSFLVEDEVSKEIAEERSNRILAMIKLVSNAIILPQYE

Molecule	Km [1] [µM]	MIC (E. coli + pZE24 TetX7_WT) [µg/mL]	MIC (E. coli + pZE24 Tet50_WT) [µg/mL]	Km (Tet(X7)) [µM]	also measured
Tet(56-2) (Legionella clemsonensis)	150 ± 42				
CN(C)c1cc(NC(=O)CNC(C)(C)C)c(O)c2c1C[C@H]1C[C@H]3[C@H](N(C)C)C(O)=C(C(N)=O)C(=O)[C@@]3(O)C(O)=C1C2=O [tigecycline]		2 (≈ 3.41 µM)	0.5 (≈ 0.854 µM)		
Tet(56-3) (Legionella massiliensis)	14.9 ± 1.4				
C[C@H]1c2cccc(O)c2C(=O)C2=C(O)[C@]3(O)C(=O)C(C(N)=O)=C(O)[C@@H](N(C)C)[C@@H]3[C@@H](O)[C@@H]21 [DOX, doxycycline]		16 (≈ 36 µM)	2 (≈ 4.5 µM)	5.62 ± 0.629	
CN(C)[C@@H]1C(=O)C(C(N)=O)=C(O)[C@@]2(O)C(=O)C3=C(O)c4c(O)cccc4[C@@](C)(O)[C@H]3C[C@@H]12 [TET, tetracycline]		32 (≈ 72 µM)	32 (≈ 72 µM)	2.97 ± 0.68	Km (Tet(56-4)): 1180 ± 562 nM; Km (Tet(56-7)): 2600 ± 301 nM; Km (Tet(56-6)): 441 ± 218 nM; Km (Tet(X13.2)): 23.4 ± 9.62 µM; Km (Tet(58)): 123 ± 67 nM; Km (Tet(56-5)): 508 ± 181 nM
Cc1c2c(c(O)c3c(O)cccc13)C(=O)[C@]1(O)C(=O)C(C(N)=O)=C(O)[C@@H](N(C)C)[C@@H]1C2 [ATC, anhydrotetracycline]					IC50 (Tet(56-3)): 30 ± 6 µM; IC50 (Tet(56-2)): 6.4 ± 0.9 µM
